Data published in US20230287416A1, “COMBINATORY TREATMENT OF SMA WITH SARNA AND MRNA MODULATORS” (RACTIGEN THERAPEUTICS, priority 2020, published 2023).

System: SMN2 mRNA
Assay: RT-qPCR of SMN2FL and SMN2 Δ7 mRNA in GM03813 cells
Format: cell-based, human
Conditions: GM03813, 72 h, alone or in combination at 10 nM, RT-qPCR (Example 10, FIG. 12A)
Source text: “GM03813 cells” refers to fibroblast cells provided by Coriell Institute for Medical Research. This cell line is described as SPINAL MUSCULAR ATROPHY, TYPE II; SMA2 SURVIVAL OF MOTOR NEURON 1, TELOMERIC; SMN1. The relevant gene is SMN1; the chromosomal location is 5q12.2-q13.3, the allelic variant is described as 1 exons 7 and 8 deleted, SPINAL MUSCULAR ATROPHY, TYPE I; and the identified mutation: is EX7-8DEL.
Seventy-two hours later, total cellular RNA was isolated from the treated cells and reverse transcribed into cDNA. SMN2 mRNA expression was assessed with RT-qPCR using primer pairs specific for SMN2FL or SMN2 Δ7. SMN2 mRNA expression was also assessed by semi-quantitative RT-PCR using a primer pair that amplifies both SMN2FL and SMN2 Δ7 followed by DdeI digestion (PCR/digestion). […] After digestion, both bands were reduced by 115 bp, resulting in two products: 392 bp (SMN2FL) and 338 bp (SMN2 Δ7) as shown on the gel of FIG. 3D. FIG. 3A-3D show dose-dependent changes in SMN2FL and SMNΔ7 mRNA as assessed by RT-qPCR and PCR/digestion respectively. FIG. 3E-3G are graphic plots of data from quantitating the intensity of bands in FIG. 3D.
SMA patient derived fibroblasts were obtained from Coriell Institute (Camden, N.J., USA), including GM00232 (SMA type I with 2 copies of SMN2 gene) and GM03813 (SMA type II with 3 copies of SMN2 gene). These cells were cultured at 5% C02 and 37° C. in modified MEM medium (Gibco, Thermo Fisher Scientific, Carlsbad, Calif.) supplemented with 15% bovine calf serum (Sigma-Aldrich), 1% NEAA (Gibco) and 1% penicillin/streptomycin (Gibco). To transfect oligonucleotides including saRNAs, siRNA and ASO, cells were seeded into 6-well plates at a density of 1×10^5 cells/well and were transfected with oligonucleotides at different concentrations using RNAiMax (Invitrogen, Carlsbad, Calif.) according to the reverse transfection protocol provided by the manufacturer for 72 hours (unless otherwise specified). For Risdiplam treatment of cells, Risdiplam (HY-109101, MedChem Express Company, Monmouth Junction, N.J., USA) dissolved in DMSO was added directly to cells at desired concentration for 72 hours unless specified otherwise.
For RNA isolation from cultured cells, total cellular RNA was isolated from treated cells using an RNeasy Plus Mini kit (Qiagen, Hilden, Germany) according to its manual. To isolated RNA from animal tissues, tissues were harvested and stored at RNA later (AM7021, Thermo Fisher). Total RNA was then isolated using MagPure Total RNA Micro LQ kit (Magen, R6621, China) by auto-pure96 machine (ALLSHENG, China). The resultant RNA (1 μg) was reverse transcribed into cDNA by using a PrimeScript RT kit containing gDNA Eraser (Takara, Shlga, Japan). The resultant cDNA was amplified in an ABI 7500 Fast Real-time PCR System (Applied Biosystems; Foster City, Calif.) using SYBR Premix Ex Taq 11 (Takara, Shlga, Japan) reagents and primers which specifically amplified full-length (SMN2FL) or A7 SMN2 mRNA (SMN2 Δ7) (FIG. 1). The reaction conditions were: 95° C. for 3 seconds (1 cycle) and 60° C. for 30 seconds (40 cycles). Amplification of TBP gene served as an internal control.

Substance	SMN2FL mRNA fold change [fold]	SMN2 Δ7 mRNA fold change [fold]
DS06-0067: saRNA targeting SMN2 promoter at -293; SEQ ID NO: 480/481 (chain 1 CACUGGAGUUCGAGACGAGTT; chain 2 CUCGUCUCGAACUCCAGUGTT; chemistry not given here)	1.3	2.4
DS06-0031: saRNA targeting SMN2 promoter at -1266; SEQ ID NO: 478/479 (chain 1 UUGUACACUUGGUCAACAUTT; chain 2 AUGUUGACCAAGUGUACAATT; chemistry not given here)	0.9	1.9
